{
  "source": "patent US5470837A",
  "about": "“5'-vinylhalo-aristeromycin/adenosine analogs and immunosuppressants” (Merrell Dow Pharmaceuticals Inc., priority 1994, dated 1995)",
  "key": {"[1]": {"test_system": "human peripheral blood mononuclear cells", "experiment": "Mitogenic assay: pokeweed mitogen stimulated proliferation ([3H]-thymidine incorporation) of human peripheral blood mononuclear cells", "assay_type": "cell-based", "procedure": "Cells: Human peripheral blood mononuclear cells were isolated from samples of blood (in 0.01M sodium citrate) using 50 mL LEUKOPREP® separation tubes (Becton Dickenson, Lincoln Park, N.J.). Tubes were centrifuged at room temperature for 15 minutes at 2400 rpm in a swinging bucket rotor. The cells recovered at interface were washed in Dulbecco's PBS and resuspended in RPMI 1640 containing 10% FCS, 5×10^-5 M 2-mercaptoethanol, 2 mM L-glutamine, 1% penicillin-streptomycin and 1 mM HEPES buffer (CM). Mitogenic Assay: Human peripheral blood mononuclear cells (2×10^5) were incubated with pokeweed mitogen at a final concentration of 0.1 μg/mL or Concanavalin A at a final concentration of 1.0 μg/mL in 96 well flat-bottomed microtiter plates (Falcon 3072, Becton Dickinson). Compounds to be tested were added at the initiation of culture. The final volume was 0.2 mL. The cultures were incubated in 95% humidified air/5% CO2 at 37° C. for 2 days (Concanavalin A) or 6 days (Pokeweed mitogen). Eighteen hours before termination of the cultures, each well was pulsed with 1 μCi of [^3 H]-thymidine. Cells from individual wells were harvested onto glass fiber filter paper with an automated multi-sample harvester. Filters were placed in scintillation fluid (Universal Cocktail, ICN Radiochemicals, Irvin, Calif.) and the [^3 H]-thymidine incorporation, in counts per minute (cpm), was measured in a Packard Tri-carb 4640 Scintillation Counter. Peripheral blood mononuclear cells from three individuals were cultured with an optimal concentration of pokeweed mitogen, a T-dependent B-cell mitogen, in the presence of increasing concentrations of (Z)-4',5'-didehydro-5'-deoxy-5'-fluoroadenosine. […] Similar studies were performed culturing human peripheral blood cells with an optimal concentration of Concanavalin A, a potent T-cell mitogen."}, "[2]": {"test_system": "human peripheral blood mononuclear cells", "experiment": "Mitogenic assay: Concanavalin A stimulated proliferation ([3H]-thymidine incorporation) of human peripheral blood mononuclear cells", "assay_type": "cell-based", "procedure": "Cells: Human peripheral blood mononuclear cells were isolated from samples of blood (in 0.01M sodium citrate) using 50 mL LEUKOPREP® separation tubes (Becton Dickenson, Lincoln Park, N.J.). Tubes were centrifuged at room temperature for 15 minutes at 2400 rpm in a swinging bucket rotor. The cells recovered at interface were washed in Dulbecco's PBS and resuspended in RPMI 1640 containing 10% FCS, 5×10^-5 M 2-mercaptoethanol, 2 mM L-glutamine, 1% penicillin-streptomycin and 1 mM HEPES buffer (CM).\n(§1) Mitogenic Assay: Human peripheral blood mononuclear cells (2×10^5) were incubated with pokeweed mitogen at a final concentration of 0.1 μg/mL or Concanavalin A at a final concentration of 1.0 μg/mL in 96 well flat-bottomed microtiter plates (Falcon 3072, Becton Dickinson). Compounds to be tested were added at the initiation of culture. The final volume was 0.2 mL. The cultures were incubated in 95% humidified air/5% CO2 at 37° C. for 2 days (Concanavalin A) or 6 days (Pokeweed mitogen). Eighteen hours before termination of the cultures, each well was pulsed with 1 μCi of [^3 H]-thymidine. Cells from individual wells were harvested onto glass fiber filter paper with an automated multi-sample harvester. Filters were placed in scintillation fluid (Universal Cocktail, ICN Radiochemicals, Irvin, Calif.) and the [^3 H]-thymidine incorporation, in counts per minute (cpm), was measured in a Packard Tri-carb 4640 Scintillation Counter.\nPeripheral blood mononuclear cells from three individuals were cultured with an optimal concentration of pokeweed mitogen, a T-dependent B-cell mitogen, in the presence of increasing concentrations of (Z)-4',5'-didehydro-5'-deoxy-5'-fluoroadenosine. […] Similar studies were performed culturing human peripheral blood cells with an optimal concentration of Concanavalin A, a potent T-cell mitogen."}, "anti-ovalbumin IgG": {"test_system": "anti-ovalbumin IgG", "experiment": "In vivo immune response to T-dependent antigen (ovalbumin): serum anti-ovalbumin IgG by ELISA", "design": "species or system mice", "conditions": "for Anti-Ovalbumin Titer ± S.D.: ten days after immunization, dilution giving absorbance 0.750 at 405 nm", "procedure": "In vivo immune response: Mice were radomly distributed by weight into 3 groups of ten. Dosing i.p. with Dulbecco's phosphate buffered saline (PBS) or (Z)-4',5'-didehydro-5'-deoxy-5'-fluoroadenosine (at 5 or 10 mg/Kg) dissolved in PBS was begun one day prior to immunization. Ovalbumin (Sigma, St. Louis, Mo.) at 2 mg/mL in PBS was emulsified in an equal volume of Freunds complete adjuvant and 50 μL, containing 50 μg ovalbumin, was injected into each footpad. Animals were dosed daily. Ten days after the immunization, the animals were bled for serum and sacrificed. Serum levels of anti-ovalbumin IgG were quantitated in an ELISA. Specifically, 100 μL of a 1% ovalbumin solution in Tris-bufferedsaline (TBS) (20 mM Tris, 500 mM NaCl, pH 7.5) was added to individual wells of a 96 well ELISA microtiter plate. The plate was incubated for 2 hours at room temperature and the wells were washed 3 times with TBS containing 0.05% Tween 20 (TBS-Tween). Dilutions of the serum samples in TBS-Tween (100 μL) were added to the wells, which were then incubated for one hour at room temperature. The plate was again washed 3 times with TBS-Tween. The wells were then incubated with 100 μL of a 1:1000 dilution of rabbit anti-mouse IgG labled with horse radish peroxidase (Bio-Rad, Richmond, Calif.) for one hour at room temperature. After washing 3 times with TBS-Tween, the wells were incubated with 100 μL of Bio-Rad peroxidase substrate [2,2'-azino-di-(3-ethyl-benzthiazoline sulfonate) in cocodylic acid buffer and hydrogen peroxide]. Absorbance at 405 nm was measured and the antibody titer was calculated from the linear regression curve of each serum sample and is reported as the log of the dilution which gave an absorbance reading of 0.750, unless otherwise indicated."}, "[3]": {"test_system": "murine splenic mononuclear cells", "experiment": "Mitogenic assay: Concanavalin A stimulated proliferation ([3H]-thymidine incorporation) of murine splenic mononuclear cells", "assay_type": "cell-based, CD-1 mice", "from_the_text": "Cells: Spleens and/or lymph nodes from a total of 16 individual outbred CD-1 mice (Charles River, Wilmington, Mass.) were asceptically removed, pooled, and single cell suspensions were made in Hank's Balanced Salt Solution (HBSS, calcium and magnesium free). Erythrocytes were lysed by treatment with Tris-buffered ammonium chloride (0.155M NH4 Cl, 0.0165M Tris, pH 7.2). Mononuclear cells were washed with HBSS and resuspended in Dulbecco's PBS and resuspended in RPMI 1640 containing 10% FCS, 5×10^-5 M 2mercaptoethanol, 2 mM L-glutamine, 1% penicillin-streptomycin and 1 mM HEPES buffer (CM).\nas §1, with “Murine splenic” for “Human peripheral blood”, “(5×10^5)” for “(2×10^5)”, “with” for “with pokeweed mitogen at a final concentration of 0.1 μg/mL or”, “2.5” for “1.0”, “plates.” for “plates (Falcon 3072, Becton Dickinson).”, “days.” for “days (Concanavalin A) or 6 days (Pokeweed mitogen).”"}},
  "data": [
    {"smiles": "Nc1ncnc2c1ncn2[C@@H]1O/C(=C\\F)[C@@H](O)[C@H]1O", "note": "[Compound A, (Z)-4',5'-didehydro-5'-deoxy-5'-fluoroadenosine]", "values": [
      {"measurement": "activity at 1 µM", "setting": "[1]; Homo sapiens, PBMC, 144 h, 1.0 μM, pokeweed mitogen 0.1 μg/mL, 6 days, read-out: Proliferation (% of Control) Pokeweed mitogen", "result": 50.9, "unit": "%"},
      {"measurement": "activity at 10 µM", "setting": "[1]; Homo sapiens, PBMC, 144 h, 10.0 μM, pokeweed mitogen 0.1 μg/mL, 6 days, read-out: Proliferation (% of Control) Pokeweed mitogen", "result": 19.7, "unit": "%"},
      {"measurement": "activity at 0.001 µM", "setting": "[1]; Homo sapiens, PBMC, 144 h, .001 μM, pokeweed mitogen 0.1 μg/mL, 6 days, read-out: Proliferation (% of Control) Pokeweed mitogen", "result": 97.4, "unit": "%"},
      {"measurement": "activity at 0.01 µM", "setting": "[1]; Homo sapiens, PBMC, 144 h, .01 μM, pokeweed mitogen 0.1 μg/mL, 6 days, read-out: Proliferation (% of Control) Pokeweed mitogen", "result": 103, "unit": "%"},
      {"measurement": "activity at 0.1 µM", "setting": "[1]; Homo sapiens, PBMC, 144 h, .1 μM, pokeweed mitogen 0.1 μg/mL, 6 days, read-out: Proliferation (% of Control) Pokeweed mitogen", "result": 72.1, "unit": "%"},
      {"measurement": "inhibition of pokeweed stimulated proliferation, in words", "setting": "[1]; increasing concentrations", "result": "dose dependent inhibition"},
      {"measurement": "activity at 1 µM", "setting": "[2]; Homo sapiens, PBMC, 48 h, 1.0 μM, Concanavalin A 1.0 μg/mL, 2 days, read-out: Proliferation (% of Control) Concanavalin A mitogen", "result": 15.8, "unit": "%"},
      {"measurement": "activity at 10 µM", "setting": "[2]; Homo sapiens, PBMC, 48 h, 10.0 μM, Concanavalin A 1.0 μg/mL, 2 days, read-out: Proliferation (% of Control) Concanavalin A mitogen", "result": 3.7, "unit": "%"},
      {"measurement": "activity at 0.001 µM", "setting": "[2]; Homo sapiens, PBMC, 48 h, .001 μM, Concanavalin A 1.0 μg/mL, 2 days, read-out: Proliferation (% of Control) Concanavalin A mitogen", "result": 100, "unit": "%"},
      {"measurement": "activity at 0.01 µM", "setting": "[2]; Homo sapiens, PBMC, 48 h, .01 μM, Concanavalin A 1.0 μg/mL, 2 days, read-out: Proliferation (% of Control) Concanavalin A mitogen", "result": 101, "unit": "%"},
      {"measurement": "activity at 0.1 µM", "setting": "[2]; Homo sapiens, PBMC, 48 h, .1 μM, Concanavalin A 1.0 μg/mL, 2 days, read-out: Proliferation (% of Control) Concanavalin A mitogen", "result": 66.4, "unit": "%"},
      {"measurement": "IC50", "setting": "[2]; PBMC, 48 h, human cells, Concanavalin A 1.0 μg/mL, 2 days, read-out: IC50, inhibition of Concanavalin A stimulated proliferation", "result": 0.25, "unit": "µM"},
      {"measurement": "inhibition of Concanavalin A stimulated proliferation, in words", "setting": "[2]; human cells, increasing concentrations", "result": "dose dependent inhibition"},
      {"measurement": "Anti-Ovalbumin Titer ± S.D.", "setting": "anti-ovalbumin IgG; 5 mg/Kg i.p. daily", "result": "550 ± 272"},
      {"measurement": "Anti-Ovalbumin Titer ± S.D.", "setting": "anti-ovalbumin IgG; 10 mg/Kg i.p. daily", "result": "375 ± 124"},
      {"measurement": "serum levels of anti-ovalbumin IgG compared to Controls", "setting": "anti-ovalbumin IgG; 5 or 10 mg/Kg i.p. daily, in words", "result": "significantly reduced"},
      {"measurement": "activity at 1 µM", "setting": "[3]; Mus musculus, 48 h, 1.0 μM, Concanavalin A 2.5 μg/mL, 2 days, read-out: Proliferation (% of Control) Concanavalin A mitogen", "result": 28.6, "unit": "%"},
      {"measurement": "activity at 10 µM", "setting": "[3]; Mus musculus, 48 h, 10.0 μM, Concanavalin A 2.5 μg/mL, 2 days, read-out: Proliferation (% of Control) Concanavalin A mitogen", "result": 17.9, "unit": "%"},
      {"measurement": "activity at 0.001 µM", "setting": "[3]; Mus musculus, 48 h, .001 μM, Concanavalin A 2.5 μg/mL, 2 days, read-out: Proliferation (% of Control) Concanavalin A mitogen", "result": 96.3, "unit": "%"},
      {"measurement": "activity at 0.01 µM", "setting": "[3]; Mus musculus, 48 h, .01 μM, Concanavalin A 2.5 μg/mL, 2 days, read-out: Proliferation (% of Control) Concanavalin A mitogen", "result": 86, "unit": "%"},
      {"measurement": "activity at 0.1 µM", "setting": "[3]; Mus musculus, 48 h, .1 μM, Concanavalin A 2.5 μg/mL, 2 days, read-out: Proliferation (% of Control) Concanavalin A mitogen", "result": 51.8, "unit": "%"},
      {"measurement": "IC50", "setting": "[3]; Mus musculus, 48 h, murine cells, Concanavalin A 2.5 μg/mL, 2 days, read-out: IC50, inhibition of Concanavalin A stimulated proliferation", "result": 0.19, "unit": "µM"},
      {"measurement": "inhibition of Concanavalin A stimulated proliferation, in words", "setting": "[3]; murine cells, increasing concentrations", "result": "dose dependent inhibition"}
    ]}
  ]
}
